Laboratory results as given in patent publication EP0908457B1, “3-(1,2-benzisothiazol- and isoxazol-5-Y1)-2,4(1H,3H)-pyrimidinedione or thione and 3-(1,2-benzisothiazol- and isoxazol-5-y1)-4(3H)-pyrimidinone or thione herbicidal agents” (BASF AKTIENGESELLSCHAFT, priority 1997, dated 1999).

Experiments:
[1] = test system: Echinochloa oryzoides (Ard.) Fritsch.; experiment: Preemergence weed control under flooded paddy conditions, ECHORC (Watergrass (Calif.)); format: in vivo; conditions: flooded paddy; for ECHORC: preemergence weeds, herbicidal effect rating 0-9, three to four weeks after treatment
Cyperus iria = experiment: Preemergence weed control under flooded paddy conditions, CYPIR (Rice Flatsedge); format: in vivo; conditions: flooded paddy; for CYPIR: preemergence weeds, herbicidal effect rating 0-9, three to four weeks after treatment
[2] = test system: Cyperus serotinus, Rottb.; experiment: Preemergence weed control under flooded paddy conditions, CYPSE (Flatsedge); format: in vivo; conditions: for CYPSE: preemergence weeds, herbicidal effect rating 0-9, three to four weeks after treatment
[3] = test system: Monochoria vaginalis, Presl.; experiment: Preemergence weed control under flooded paddy conditions, MOOVA (Monochoria); format: in vivo; conditions: flooded paddy; for MOOVA: preemergence weeds, herbicidal effect rating 0-9, three to four weeks after treatment
Sagittaria pygmaea, L. = experiment: Preemergence weed control under flooded paddy conditions, SAGPY (Arrowhead (Pygmaea)); format: in vivo; conditions: flooded paddy; for SAGPY: preemergence weeds, herbicidal effect rating 0-9, three to four weeks after treatment
[4] = test system: Oryza sativa, (L.) Tebonnet; experiment: Rice tolerance to post-transplant applications under flooded paddy conditions (Example 187), ORYSAT (Rice, Tebonnet); conditions: for ORYSAT: herbicidal effect rating 0-9, three to four weeks after treatment
[5] = 0.0320 kg/ha, preemergence, rated three to four weeks after treatment

SMILES	ECHORC ([1]; 0.0320 kg/ha)	ECHORC ([1]; 0.0620 kg/ha)	ECHORC ([1]; 0.1250 kg/ha)	ECHORC ([1]; 0.2500 kg/ha)	CYPIR (Cyperus iria; 0.0320 kg/ha)	CYPIR (Cyperus iria; 0.0620 kg/ha)	CYPIR (Cyperus iria; 0.1250 kg/ha)	CYPIR (Cyperus iria; 0.2500 kg/ha)	CYPSE ([2]; 0.0320 kg/ha)	CYPSE ([2]; 0.0620 kg/ha)	CYPSE ([2]; 0.2500 kg/ha)	MOOVA ([3]; 0.0620 kg/ha)	MOOVA ([3]; 0.1250 kg/ha)	MOOVA ([3]; 0.2500 kg/ha)	SAGPY (Sagittaria pygmaea, L.; 0.0620 kg/ha)	SAGPY (Sagittaria pygmaea, L.; 0.1250 kg/ha)	SAGPY (Sagittaria pygmaea, L.; 0.2500 kg/ha)	ORYSAT ([4]; 0.0620 kg/ha)	ORYSAT ([4]; 0.1250 kg/ha)	ORYSAT ([4]; 0.2500 kg/ha)	further results
CCC(C#N)c1nsc2ccc(-n3c(=O)cc(C(F)(F)F)n(C)c3=O)cc12 (stereo not drawn) [Example 444, 1,2-Benzisothiazole-3-acetonitrile, 5-[3,6-dihydro-3-methyl-2,6-dioxo-4-(trifluoromethyl)-1(2H)-pyrimidinyl]-alpha-ethyl-]	3.5	6.0	8.5	9.0	7.5	8.0	9.0	9.0	3.5	9.0	9.0	9.0	9.0	9.0	6.0	7.0	9.0	6.5	9.0	8.5	CYPSE ([2]; 0.1250 kg/ha): 9.0; MOOVA ([3]; 0.0320 kg/ha): 8.0; SAGPY (Sagittaria pygmaea, L.; 0.0320 kg/ha): 4.5; ORYSAT ([4]; 0.0320 kg/ha): 4.5
Cn1c(C(F)(F)F)cc(=O)n(-c2ccc3snc(C4(C#N)CC4)c3c2)c1=O [Example 446, Cyclopropanecarbonitrile, 1-{5-[3,6-dihydro-3-methyl-2,6-dioxo-4-(trifluoromethyl)-1(2H)-pyrimidinyl]-1,2-benzisothiazol-3-yl}-]	6.0	6.0	7.0	9.0	9.0	9.0	9.0	9.0	9.0	9.0	9.0	9.0	9.0	9.0	9.0	9.0	9.0	7.0	9.0	9.0	CYPSE ([2]; 0.1250 kg/ha): 9.0; MOOVA ([3]; 0.0320 kg/ha): 9.0; SAGPY (Sagittaria pygmaea, L.; 0.0320 kg/ha): 9.0; ORYSAT ([4]; 0.0320 kg/ha): 6.0
COc1cc(C(Br)Br)ccc1-c1nsc2ccc(-n3c(=O)cc(C(F)(F)F)n(C)c3=O)cc12 [Example 447, 2,4(1H,3H)-Pyrimidinedione, 3-[3-(alpha,alpha-dibromo-2-methoxy-p-tolyl)-1,2-benzisothiazol-5-yl]-1-methyl-6-(trifluoromethyl)-]	4.0	6.0	7.0	9.0	4.0	6.0	7.0	9.0	0.0	0.0	4.0	9.0	9.0	9.0	4.0	5.0	9.0	4.0	5.0	7.0	MOOVA ([3]; 0.0320 kg/ha): 7.0; SAGPY (Sagittaria pygmaea, L.; 0.0320 kg/ha): 4.0; ORYSAT ([4]; 0.0320 kg/ha): 4.0
CCOCOCc1nsc2ccc(-n3c(=O)cc(C(F)(F)F)n(C)c3=O)cc12 [Example 455, 2,4(1H,3H)-Pyrimidinedione, 3-(3-[(ethoxymethoxy)methyl]-1,2-benzisothiazol-5-yl}-1-methyl-6-(trifluoromethyl)-]	9.0	9.0	9.0	9.0	6.0	7.0	9.0	9.0	2.0	6.0	9.0	7.0	9.0	9.0	6.0	7.0	9.0	8.0	9.0	9.0	CYPSE ([2]; 0.1250 kg/ha): 8.0; MOOVA ([3]; 0.0320 kg/ha): 6.0; SAGPY (Sagittaria pygmaea, L.; 0.0320 kg/ha): 4.0; ORYSAT ([4]; 0.0320 kg/ha): 6.0
Cn1c(C(F)(F)F)cc(=O)n(-c2ccc3snc(COC4CCCCO4)c3c2)c1=O (centres unmarked) [Example 456, 2,4(1H,3H)-Pyrimidinedione, 1-methyl-3-{3-{[(tetrahydro-2H-pyran-2-yl)oxy]methyl}-1,2-benzisothiazol-5-yl}-6-(trifluoromethyl)-]	4.0	6.0	7.0	9.0	0.0	4.0	6.0	6.0	0.0	0.0	4.0	9.0	9.0	9.0	0.0	2.0	4.0	8.0	8.0	9.0	CYPSE ([2]; 0.1250 kg/ha): 2.0; MOOVA ([3]; 0.0320 kg/ha): 7.0; SAGPY (Sagittaria pygmaea, L.; 0.0320 kg/ha): 0.0; ORYSAT ([4]; 0.0320 kg/ha): 7.0
Cc1ccsc1C=C(C#N)c1nsc2ccc(-n3c(=O)cc(C(F)(F)F)n(C)c3=O)cc12 [Example 457, 1,2-Benzisothiazole-3-acetonitrile, 5-[3,6-dihydro-3-methyl-2,6-dioxo-4-(trifluoromethyl)-1(2H)-pyrimidinyl]-alpha-(3-methyl-2-thenylidene)-]	5.0	7.0	9.0	9.0	0.0	3.0	5.0	7.0	0.0	0.0	0.0	4.0	7.0	7.0	0.0	3.0	3.0	0.0	0.0	3.0	CYPSE ([2]; 0.1250 kg/ha): 0.0; MOOVA ([3]; 0.0320 kg/ha): 2.0; SAGPY (Sagittaria pygmaea, L.; 0.0320 kg/ha): 0.0; ORYSAT ([4]; 0.0320 kg/ha): 0.0
COC(=O)COc1ccc(I)cc1-c1nsc2ccc(-n3c(=O)cc(C(F)(F)F)n(C)c3=O)cc12 [Example 459, Acetic acid, {2-{5-[3,6-dihydro-3-methyl-2,6-dioxo-4-(trifluoromethyl)-1(2H)-pyrimidinyl]-1,2-benzisothiazol-3-yl}-4-iodophenoxy}-, methyl ester]	–	7.0	9.0	9.0	–	2.0	4.0	4.0	–	0.0	3.0	5.0	7.0	7.0	0.0	0.0	0.0	4.0	5.0	5.0	ECHORC herbicidal rating [1, 5]: 7.0; CYPIR herbicidal rating (Cyperus iria; [5]): 0.0; CYPSE herbicidal rating [2, 5]: 0.0; CYPSE ([2]; 0.1250 kg/ha): 0.0; MOOVA herbicidal rating [3, 5]: 3.0; SAGPY herbicidal rating (Sagittaria pygmaea, L.; [5]): 0.0; ORYSAT herbicidal rating (rice tolerance) ([4]; 0.0320 kg/ha, rated three to four weeks after treatment): 2.0
